Experimental data as given in BindingDB's records for doi:10.7270/Q20V8B7J (Nmmlsc, 2009).

What follows are molecules tested against Ras-related C3 botulinum toxin substrate 1 (Mus musculus, UniProt P63001) (assay: activated mutant Rac1 GTP binding inhibitors, SAR follow-up, biochemical, additional analogs, multiplex bead flow cytometry (AID 2039)).

`O=C1Nc2c(Br)cccc2C1=C1Nc2ccccc2C1=O` was tested. Which Ki did it give?
Its Ki is 2510 nM.

Which Ki does the source give for `O=C1NC(=O)/C(=C2/C(=O)Nc3ccccc32)N1` here?
The Ki was 1060 nM.

With `O=C1Nc2ccc(Br)cc2C1=C1Nc2ccccc2C1=O` as the molecule, how does the Ki read?
Its Ki is 1110 nM.

For `O=C1N=c2ccc(Br)cc2=C1c1[nH]c2ccccc2c1NO` [5-bromanyl-3-[3-(oxidanylamino)-1H-indol-2-yl]indol-2-one], which Ki is on record?
Its Ki is 2980 nM.

How did the Ki turn out when `O=C1N=c2c(F)cccc2=C1c1[nH]c2ccccc2c1NO` [7-fluoro-3-[3-(hydroxyamino)-1H-indol-2-yl]-2-indolone] was run?
The Ki was 2870 nM.

Which Ki does the source give for `O=C1NC(=S)N/C1=C1\C(=O)Nc2ccccc21` [(3Z)-3-(5-oxo-2-sulfanylideneimidazolidin-4-ylidene)-1H-indol-2-one] here?
Its Ki is 640 nM.
